Reference: ChEMBL document CHEMBL5653615 (J Biol Chem, 2013)

Columns and labels:
[1] = target: Proto-oncogene tyrosine-protein kinase ROS (Homo sapiens) (UniProt P08922); assay: Inhibition of human ROS1 at 1.82 nM by HotSpot assay relative to control
[2] = target: Death-associated protein kinase 2 (Homo sapiens) (UniProt Q9UIK4); assay: Inhibition of human DAPK2 at 1.82 nM by HotSpot assay relative to control
[3] = target: Serine/threonine-protein kinase PAK 5 (Homo sapiens) (UniProt Q9P286); assay: Inhibition of human PAK5 at 1.82 nM by HotSpot assay relative to control
[4] = target: Serine/threonine-protein kinase WNK2 (Homo sapiens) (UniProt Q9Y3S1); assay: Inhibition of human WNK2 at 18.6 nM by HotSpot assay relative to control
[5] = target: Platelet-derived growth factor receptor alpha (Homo sapiens) (UniProt P16234); assay: Inhibition of human PDGFRa at 18.6 nM by HotSpot assay relative to control
[6] = target: T1, Serine/threonine-protein kinase BRSK1 (Homo sapiens) (UniProt Q8TDC3); assay: Inhibition of human BRSK1 at 18.6 nM by HotSpot assay relative to control
T1 sequence (whole entry): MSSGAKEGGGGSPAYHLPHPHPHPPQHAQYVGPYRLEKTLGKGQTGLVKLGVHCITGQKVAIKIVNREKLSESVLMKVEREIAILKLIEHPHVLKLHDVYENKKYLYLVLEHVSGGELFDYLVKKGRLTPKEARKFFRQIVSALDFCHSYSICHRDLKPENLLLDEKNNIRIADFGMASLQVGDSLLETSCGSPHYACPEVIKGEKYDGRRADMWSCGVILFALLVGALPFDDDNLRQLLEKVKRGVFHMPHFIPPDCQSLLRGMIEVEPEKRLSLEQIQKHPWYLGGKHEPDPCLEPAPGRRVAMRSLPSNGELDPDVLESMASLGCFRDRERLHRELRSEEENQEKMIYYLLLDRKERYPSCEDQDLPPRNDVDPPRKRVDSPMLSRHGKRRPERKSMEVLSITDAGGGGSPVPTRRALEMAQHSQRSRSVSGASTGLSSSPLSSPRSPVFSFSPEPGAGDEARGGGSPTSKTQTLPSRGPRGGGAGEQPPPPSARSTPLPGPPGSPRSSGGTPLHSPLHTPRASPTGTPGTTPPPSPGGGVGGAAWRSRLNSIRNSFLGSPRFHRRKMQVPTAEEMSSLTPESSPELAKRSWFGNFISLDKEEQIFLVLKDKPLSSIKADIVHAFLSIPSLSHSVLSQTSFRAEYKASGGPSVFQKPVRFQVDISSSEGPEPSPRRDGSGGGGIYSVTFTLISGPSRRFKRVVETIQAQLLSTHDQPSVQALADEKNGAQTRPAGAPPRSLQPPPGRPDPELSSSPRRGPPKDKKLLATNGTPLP

[7] = target: RAC-alpha serine/threonine-protein kinase (Homo sapiens) (UniProt P31749); assay: Inhibition of human AKT1 at 18.6 nM by HotSpot assay relative to control
Sequence of RAC-alpha serine/threonine-protein kinase (Homo sapiens) (P31749 whole entry, canonical isoform): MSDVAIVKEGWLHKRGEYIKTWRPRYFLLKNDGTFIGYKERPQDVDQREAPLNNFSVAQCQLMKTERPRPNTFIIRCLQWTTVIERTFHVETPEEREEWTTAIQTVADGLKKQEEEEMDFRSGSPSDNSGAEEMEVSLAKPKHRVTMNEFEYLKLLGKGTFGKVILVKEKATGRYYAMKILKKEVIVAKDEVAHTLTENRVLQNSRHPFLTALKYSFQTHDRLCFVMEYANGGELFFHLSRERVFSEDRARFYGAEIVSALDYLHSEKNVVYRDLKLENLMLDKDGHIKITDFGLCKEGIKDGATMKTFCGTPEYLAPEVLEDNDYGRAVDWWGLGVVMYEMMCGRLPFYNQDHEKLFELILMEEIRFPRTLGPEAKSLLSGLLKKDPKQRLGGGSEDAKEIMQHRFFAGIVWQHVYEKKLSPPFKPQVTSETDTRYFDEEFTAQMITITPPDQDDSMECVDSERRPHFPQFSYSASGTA

[8] = target: Casein kinase I isoform gamma-3 (Homo sapiens) (UniProt Q9Y6M4); assay: Inhibition of human CK1g3 at 18.6 nM by HotSpot assay relative to control
Sequence of Casein kinase I isoform gamma-3 (Homo sapiens) (Q9Y6M4 whole entry, looked up, canonical isoform): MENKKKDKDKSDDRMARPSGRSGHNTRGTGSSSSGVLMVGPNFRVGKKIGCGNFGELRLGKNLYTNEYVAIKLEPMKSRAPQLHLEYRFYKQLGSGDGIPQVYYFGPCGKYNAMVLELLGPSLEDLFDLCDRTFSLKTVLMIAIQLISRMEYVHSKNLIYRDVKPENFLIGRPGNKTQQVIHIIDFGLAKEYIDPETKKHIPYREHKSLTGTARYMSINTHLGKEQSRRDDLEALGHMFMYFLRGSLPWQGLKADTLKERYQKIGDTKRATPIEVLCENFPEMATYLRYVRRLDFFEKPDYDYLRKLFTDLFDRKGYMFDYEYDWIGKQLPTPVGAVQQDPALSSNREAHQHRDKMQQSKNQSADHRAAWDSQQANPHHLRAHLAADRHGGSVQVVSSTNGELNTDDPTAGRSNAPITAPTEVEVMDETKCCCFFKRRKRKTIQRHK

[9] = target: T2, Calcium/calmodulin-dependent protein kinase type IV (Homo sapiens) (UniProt Q16566); assay: Inhibition of human CAMK4 at 18.6 nM by HotSpot assay relative to control
T2 sequence (whole entry): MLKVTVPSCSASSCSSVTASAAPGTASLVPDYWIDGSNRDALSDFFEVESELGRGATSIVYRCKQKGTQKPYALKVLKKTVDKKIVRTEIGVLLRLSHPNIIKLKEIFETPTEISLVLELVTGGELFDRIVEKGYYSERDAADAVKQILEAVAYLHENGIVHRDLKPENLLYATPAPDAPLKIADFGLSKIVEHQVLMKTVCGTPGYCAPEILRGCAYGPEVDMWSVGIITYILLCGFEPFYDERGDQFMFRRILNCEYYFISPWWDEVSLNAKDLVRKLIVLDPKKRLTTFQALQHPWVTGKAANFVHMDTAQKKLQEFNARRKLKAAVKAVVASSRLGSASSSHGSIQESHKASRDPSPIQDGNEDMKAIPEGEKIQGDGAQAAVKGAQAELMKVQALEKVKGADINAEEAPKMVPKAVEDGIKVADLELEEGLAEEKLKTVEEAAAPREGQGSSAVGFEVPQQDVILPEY

[10] = target: Vascular endothelial growth factor receptor 3 (Homo sapiens) (UniProt P35916); assay: Inhibition of human FLT4 at 18.6 nM by HotSpot assay relative to control
Sequence of Vascular endothelial growth factor receptor 3 (Homo sapiens) (P35916 whole entry): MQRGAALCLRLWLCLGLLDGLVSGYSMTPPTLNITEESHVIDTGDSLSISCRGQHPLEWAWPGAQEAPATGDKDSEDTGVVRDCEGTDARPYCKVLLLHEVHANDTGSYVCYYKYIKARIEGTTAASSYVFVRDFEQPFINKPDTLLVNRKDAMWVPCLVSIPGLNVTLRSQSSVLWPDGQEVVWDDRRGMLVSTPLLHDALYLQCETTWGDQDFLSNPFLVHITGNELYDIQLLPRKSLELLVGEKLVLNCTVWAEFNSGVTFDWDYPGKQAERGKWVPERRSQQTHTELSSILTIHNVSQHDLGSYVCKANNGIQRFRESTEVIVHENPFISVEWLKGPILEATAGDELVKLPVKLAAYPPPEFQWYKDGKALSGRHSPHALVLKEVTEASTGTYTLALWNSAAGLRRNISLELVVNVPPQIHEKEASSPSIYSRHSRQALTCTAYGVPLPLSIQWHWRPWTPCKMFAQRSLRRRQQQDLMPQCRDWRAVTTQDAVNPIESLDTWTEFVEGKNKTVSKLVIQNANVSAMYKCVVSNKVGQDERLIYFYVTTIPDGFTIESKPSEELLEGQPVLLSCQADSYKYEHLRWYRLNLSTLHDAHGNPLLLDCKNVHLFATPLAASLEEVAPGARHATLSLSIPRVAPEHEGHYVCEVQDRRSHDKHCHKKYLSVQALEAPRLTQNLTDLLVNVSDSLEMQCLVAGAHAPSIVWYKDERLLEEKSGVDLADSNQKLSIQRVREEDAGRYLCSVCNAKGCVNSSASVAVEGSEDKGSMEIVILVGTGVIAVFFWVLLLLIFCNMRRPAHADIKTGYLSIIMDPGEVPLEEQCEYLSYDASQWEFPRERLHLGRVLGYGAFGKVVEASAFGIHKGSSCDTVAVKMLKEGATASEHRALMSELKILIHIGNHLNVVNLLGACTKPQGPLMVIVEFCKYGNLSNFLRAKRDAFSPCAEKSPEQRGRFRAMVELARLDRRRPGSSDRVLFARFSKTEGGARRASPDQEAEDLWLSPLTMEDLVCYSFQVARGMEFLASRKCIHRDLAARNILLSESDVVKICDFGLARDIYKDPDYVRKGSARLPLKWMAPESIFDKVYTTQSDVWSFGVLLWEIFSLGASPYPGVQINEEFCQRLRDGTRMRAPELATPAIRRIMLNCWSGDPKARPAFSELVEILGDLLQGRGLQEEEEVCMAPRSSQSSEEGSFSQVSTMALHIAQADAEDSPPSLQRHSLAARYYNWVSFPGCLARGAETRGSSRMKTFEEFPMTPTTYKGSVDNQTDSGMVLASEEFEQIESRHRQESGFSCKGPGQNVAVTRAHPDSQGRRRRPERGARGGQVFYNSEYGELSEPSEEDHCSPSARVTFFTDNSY

[11] = target: CDK4/Cyclin D3 (Homo sapiens) (UniProt P11802+P30281); assay: Inhibition of human CDK4/cyclin D3 at 18.6 nM by HotSpot assay relative to control; type: protein-complex assay
[12] = target: T3, Inhibitor of nuclear factor kappa-B kinase subunit epsilon (Homo sapiens) (UniProt Q14164); assay: Inhibition of human IKKe at 18.6 nM by HotSpot assay relative to control
T3 sequence (whole entry): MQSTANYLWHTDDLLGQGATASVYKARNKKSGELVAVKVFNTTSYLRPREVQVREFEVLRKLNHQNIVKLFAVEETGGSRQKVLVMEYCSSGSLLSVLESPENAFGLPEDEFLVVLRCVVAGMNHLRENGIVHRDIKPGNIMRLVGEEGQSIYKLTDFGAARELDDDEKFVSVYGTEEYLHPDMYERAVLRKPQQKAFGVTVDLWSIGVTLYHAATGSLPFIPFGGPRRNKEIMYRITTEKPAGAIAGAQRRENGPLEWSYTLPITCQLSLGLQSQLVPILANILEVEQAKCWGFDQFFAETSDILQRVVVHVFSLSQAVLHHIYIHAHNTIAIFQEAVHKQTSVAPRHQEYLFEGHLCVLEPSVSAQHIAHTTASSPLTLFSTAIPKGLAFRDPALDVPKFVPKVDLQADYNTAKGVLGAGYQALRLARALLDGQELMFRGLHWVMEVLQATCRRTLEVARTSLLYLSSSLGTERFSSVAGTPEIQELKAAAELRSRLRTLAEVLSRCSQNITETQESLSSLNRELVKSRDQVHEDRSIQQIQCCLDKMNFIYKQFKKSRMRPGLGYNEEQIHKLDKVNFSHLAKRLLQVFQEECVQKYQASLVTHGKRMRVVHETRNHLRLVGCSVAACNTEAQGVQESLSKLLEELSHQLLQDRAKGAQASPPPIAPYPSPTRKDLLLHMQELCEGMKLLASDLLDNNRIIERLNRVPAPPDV

Sequence of Death-associated protein kinase 2 (Homo sapiens) (Q9UIK4 whole entry, looked up): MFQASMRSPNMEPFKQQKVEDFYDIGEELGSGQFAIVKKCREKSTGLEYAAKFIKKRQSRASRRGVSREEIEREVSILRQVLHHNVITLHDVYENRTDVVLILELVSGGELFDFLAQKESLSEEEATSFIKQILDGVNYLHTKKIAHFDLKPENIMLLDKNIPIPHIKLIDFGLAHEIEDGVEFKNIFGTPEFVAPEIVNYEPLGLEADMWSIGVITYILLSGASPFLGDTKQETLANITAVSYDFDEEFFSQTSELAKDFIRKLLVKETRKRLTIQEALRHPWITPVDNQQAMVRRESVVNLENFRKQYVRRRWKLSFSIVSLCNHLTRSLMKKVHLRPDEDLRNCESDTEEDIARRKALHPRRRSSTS
Sequence of Proto-oncogene tyrosine-protein kinase ROS (Homo sapiens) (P08922 whole entry): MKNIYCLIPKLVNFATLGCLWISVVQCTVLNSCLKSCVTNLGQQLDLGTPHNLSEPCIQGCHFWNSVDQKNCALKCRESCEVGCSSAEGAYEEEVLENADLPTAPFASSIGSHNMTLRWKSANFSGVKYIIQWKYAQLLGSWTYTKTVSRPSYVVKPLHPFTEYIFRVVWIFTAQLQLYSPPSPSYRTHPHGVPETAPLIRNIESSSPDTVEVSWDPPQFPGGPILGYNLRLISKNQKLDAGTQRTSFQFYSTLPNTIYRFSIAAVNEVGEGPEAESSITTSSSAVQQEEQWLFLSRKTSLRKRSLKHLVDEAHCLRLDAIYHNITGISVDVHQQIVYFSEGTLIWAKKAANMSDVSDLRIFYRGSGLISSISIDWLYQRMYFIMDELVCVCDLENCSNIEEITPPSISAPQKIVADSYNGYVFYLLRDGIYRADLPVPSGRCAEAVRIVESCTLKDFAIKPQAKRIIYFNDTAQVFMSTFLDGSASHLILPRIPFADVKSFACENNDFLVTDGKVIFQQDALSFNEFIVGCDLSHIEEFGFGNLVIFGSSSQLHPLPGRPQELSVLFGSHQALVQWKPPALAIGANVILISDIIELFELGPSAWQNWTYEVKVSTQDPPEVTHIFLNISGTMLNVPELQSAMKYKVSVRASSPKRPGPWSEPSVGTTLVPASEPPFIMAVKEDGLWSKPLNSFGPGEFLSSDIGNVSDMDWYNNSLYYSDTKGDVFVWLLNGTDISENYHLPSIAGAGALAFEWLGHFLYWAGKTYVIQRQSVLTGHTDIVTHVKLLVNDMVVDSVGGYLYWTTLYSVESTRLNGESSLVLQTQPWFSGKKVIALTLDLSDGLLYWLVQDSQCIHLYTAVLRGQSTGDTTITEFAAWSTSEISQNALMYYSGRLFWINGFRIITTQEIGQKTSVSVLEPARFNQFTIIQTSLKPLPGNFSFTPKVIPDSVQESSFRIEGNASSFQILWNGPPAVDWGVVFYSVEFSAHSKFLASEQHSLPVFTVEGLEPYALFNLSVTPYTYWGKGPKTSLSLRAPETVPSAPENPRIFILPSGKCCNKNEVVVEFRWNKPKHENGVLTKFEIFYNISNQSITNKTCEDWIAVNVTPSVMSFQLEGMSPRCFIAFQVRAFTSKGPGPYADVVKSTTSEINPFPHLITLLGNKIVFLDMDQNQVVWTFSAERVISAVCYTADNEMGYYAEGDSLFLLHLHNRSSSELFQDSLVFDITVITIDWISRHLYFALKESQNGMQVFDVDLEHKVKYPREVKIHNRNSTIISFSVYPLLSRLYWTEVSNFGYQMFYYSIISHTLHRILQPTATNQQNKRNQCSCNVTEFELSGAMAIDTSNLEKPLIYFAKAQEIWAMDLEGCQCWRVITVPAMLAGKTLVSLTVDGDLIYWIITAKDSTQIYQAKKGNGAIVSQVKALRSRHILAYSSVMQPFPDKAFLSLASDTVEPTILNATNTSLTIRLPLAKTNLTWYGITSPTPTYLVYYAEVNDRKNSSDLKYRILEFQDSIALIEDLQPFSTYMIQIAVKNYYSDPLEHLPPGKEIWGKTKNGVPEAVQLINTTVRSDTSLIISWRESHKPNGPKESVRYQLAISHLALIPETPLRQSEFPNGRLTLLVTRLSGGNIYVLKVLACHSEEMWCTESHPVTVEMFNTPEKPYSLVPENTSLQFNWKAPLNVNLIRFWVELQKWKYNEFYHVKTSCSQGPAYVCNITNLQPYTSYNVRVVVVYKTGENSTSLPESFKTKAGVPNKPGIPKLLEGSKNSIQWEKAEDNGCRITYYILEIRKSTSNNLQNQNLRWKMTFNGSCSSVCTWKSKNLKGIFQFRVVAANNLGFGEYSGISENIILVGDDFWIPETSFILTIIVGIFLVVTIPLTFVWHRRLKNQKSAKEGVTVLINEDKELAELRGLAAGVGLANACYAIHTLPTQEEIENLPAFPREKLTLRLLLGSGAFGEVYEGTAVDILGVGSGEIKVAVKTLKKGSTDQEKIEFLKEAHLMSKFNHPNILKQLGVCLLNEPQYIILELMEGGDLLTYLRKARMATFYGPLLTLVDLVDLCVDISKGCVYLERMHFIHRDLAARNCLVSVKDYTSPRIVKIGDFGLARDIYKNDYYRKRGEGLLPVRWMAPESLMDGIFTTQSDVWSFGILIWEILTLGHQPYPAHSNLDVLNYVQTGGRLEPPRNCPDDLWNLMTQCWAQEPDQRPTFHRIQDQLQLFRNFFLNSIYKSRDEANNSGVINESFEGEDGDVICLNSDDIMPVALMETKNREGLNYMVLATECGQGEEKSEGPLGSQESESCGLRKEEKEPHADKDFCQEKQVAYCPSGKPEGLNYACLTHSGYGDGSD

SMILES | inhibition [1] | inhibition [2] | inhibition [3] | inhibition [4] | inhibition [5] | inhibition [6] | inhibition [7] | inhibition [8] | inhibition [9] | inhibition [10] | inhibition [11] | inhibition [12]
C[C@@]1(C(=O)Nc2ccc(F)nc2)CCCN1c1nc(Nc2cc(C3CC3)n[nH]2)c2cccn2n1 | 73.5% | -1.36% | -4.48% |  |  |  |  |  |  |  |  | 
C[C@]1(O)C[C@@H](c2nc(-c3ccc4ccc(-c5ccccc5)nc4c3)c3c(N)nccn32)C1 |  |  |  | -2.52% | 2.05% | -2.86% | -3.01% | 1.42% | 4.07% | -2.25% | 2.46% | 3.19%
